Laboratory results reported in PubChem BioAssay (NCI).
“And” between values parts separate entries of the source, which are not always exact repeats. Identical values can stand only once.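 Five concentrations, 48 hours, 96-well plates. GI50 = concentration required for 50% inhibition of growth. TGI is the concentration that stops growth completely.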

Key:
Assay in all cases: NCI-60 cell line screen, 48 h
[1] = tested on: SNB-75 CNS
[2] = tested on: 786-0 renal
[3] = tested on: HCC-2998 colon
[4] = tested on: MDA-MB-231 breast
[5] = tested on: HCT-116 colon
[6] = tested on: UACC-257 melanoma
[7] = tested on: KM12 colon
[8] = tested on: CCRF-CEM leukemia
[9] = tested on: UACC-62 melanoma
[10] = tested on: NCI-H226 lung

| SMILES | GI50 [1] [µM] | TGI [1] | GI50 [2] [µM] | TGI [2] | GI50 [3] [µM] | TGI [3] | GI50 [4] [µM] | TGI [4] | GI50 [5] [µM] | TGI [5] | GI50 [6] [µM] | TGI [6] | GI50 [7] [µM] | TGI [7] | GI50 [8] [µM] | GI50 [9] [µM] | TGI [9] | GI50 [10] [µM] | TGI [10] | TGI [8] [µM] |
| --- | --- | --- | --- | --- | --- | --- | --- | --- | --- | --- | --- | --- | --- | --- | --- | --- | --- | --- | --- | --- |
| COc1cc(-n2cc(-c3ccc(Cl)cc3)n(-c3ccccc3)c2=O)cc(OC)c1OC | 20.9 | > 100 µM | 30.7 | > 100 µM | 22.9 | > 100 µM | 16.4 | > 68.9 µM | 13.7 | > 89 µM | 15.5 | 71.9 µM | 23.3 | > 100 µM | 2.67 | 4.92 | 28.2 µM | 29.9 | 97.1 µM |  |
| CCc1cc2c(c(OCC(F)(F)F)c(C(=O)NC3CCN(C(=O)CO)CC3)n2C)c(=O)n1CC(=O)c1ccccc1 | > 33.9 | > 100 µM | 33.4 | > 100 µM | > 78 | > 100 µM | 54.6 | > 100 µM | 63.5 | > 100 µM | > 82.2 | > 100 µM | 58.5 | > 100 µM | 38.5 | 57.8 | > 100 µM | 97 | > 100 µM | > 100 |
| CCCCN(CCCC)P(=O)(Oc1ccccc1)Oc1ccccc1 | 11.3 | 27.3 µM | 12.3 | 25.2 µM | 10 | 22.2 µM | 8.08 | 23.3 µM | 3.39 | 16.8 µM | 8.04 | 22.4 µM | 8.1 | 21.4 µM | 8.35 | 11.9 | 25.7 µM | 10.4 | 25.4 µM | 59.3 |
| ClCc1ccccc1Cn1cnc2nc(Cl)nc(Cl)c21 | 1.6 | 3.43 µM | 0.19 | 1.08 µM | 3.96 | 8.56 µM | 0.219 | 0.642 µM | 0.115 | 0.236 µM | 1.6 | 5.22 µM | 5.93 | 24.2 µM | 0.104 | 0.495 | 1.37 µM | 1.18 | 9.52 µM | 0.305 |
| CC(=O)O[C@@H]1c2c(c3c(=O)c4cccc(O)c4c(=O)c=3c2=[N+]=[N-])[C@H](OC(C)=O)[C@@H](OC(C)=O)[C@]1(C)O | 0.582 | 0.851 µM and 1.69 µM | 0.221 | 0.944 µM and 0.548 µM | 0.358 | 0.522 µM and 1.22 µM | 0.335 | 1.46 µM and 1.48 µM | 0.271 | 0.617 µM and 0.89 µM | 0.295 | 1.4 µM and 0.815 µM | 0.27 | 0.914 µM and 0.9 µM |  | 0.297 | 1.35 µM and 1.02 µM | 0.617 | 1.45 µM and 2.18 µM | 0.0632 |
| Oc1ccc(N=Nc2ccc(Br)cc2)c(O)c1 | 2.79 | 21.8 µM | 3.17 | 23.6 µM | 3.55 | 12 µM | 3.47 | 16.6 µM | 3.25 | 14.1 µM | 7.52 | 30.7 µM | 3.31 | 39.8 µM | 1.91 | 3.01 | 20.8 µM | 7.91 | 42.9 µM | 4.82 |
| CCCCCN(CCCCC)CCC[C@@H](C)[C@H]1CC[C@H]2[C@@H]3[C@H](OCCCN)C[C@@H]4C[C@H](OCCCN)CC[C@]4(C)[C@H]3C[C@H](OCCCN)[C@]12C | 7.52 | 22.8 µM | 8.26 | 24 µM | 7.98 | 24.9 µM | 4.41 | 19.7 µM | 2.4 | 14.7 µM | 13.5 | 28.6 µM | 3.59 | 17 µM | 4.47 | 1.56 | 6.41 µM | 5.11 | 24.8 µM | 20.5 |
| CC(C)(C)c1cc(C[P+](c2ccccc2)(c2ccccc2)c2ccccc2)cc(C(C)(C)C)c1O | 0.369 | 6.18 µM | 1.81 | 9.73 µM | 0.491 | 10.2 µM | 0.473 | 2.84 µM | 0.275 | 10.2 µM | 0.227 | 0.684 µM | 0.364 | 1.51 µM | 0.545 | 0.365 | 1.66 µM | 1.45 | 18.3 µM | 5.33 |
| Clc1ccc(-c2cnc3c(-c4ccnc(N5CCNCC5)c4)cnn3c2)cc1 | 1.56 | 2.91 µM | 1.83 | 3.22 µM | 2.02 | 3.51 µM | 1.74 | 3.7 µM | 1.71 | 3.09 µM | 2.08 | 3.82 µM | 1.87 | 3.43 µM | 2.07 | 2.06 | 3.91 µM | 21.4 | 44.7 µM | 5.13 |
| O=C(Nc1ccc(I)cc1F)c1cc(Br)ccc1O | 0.451 | 2.23 µM | 2.19 | 5.5 µM | 2.77 | 10.7 µM | 0.457 | 4.73 µM | 0.411 | 1.96 µM | 0.707 | 4.29 µM | 2.2 | 5.49 µM | 1.01 | 0.25 | 0.812 µM | 1.28 | 4.41 µM | 19.5 |
| Cc1ccc(-c2cc(C(=O)Nc3ccc(S(=O)(=O)N4CCCCC4)cc3)[nH]n2)c(O)c1 | > 100 | > 100 µM | > 100 | > 100 µM | > 100 | > 100 µM | 16.8 | > 100 µM | > 100 | > 100 µM | > 100 | > 100 µM | > 100 | > 100 µM | 59.6 | > 100 | > 100 µM | > 100 | > 100 µM | > 100 |
